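Cultured in 96-well plates, cells were exposed to test compound for 48 hours across five concentrations. The concentration for 50% growth inhibition is given as GI50.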 Activity calls are given as the source filed them. Cut-off read from the data, not from the text of the source: active = GI50 up to about 1.1 µM and inactive = higher.
Experiments:
Assay in all cases: inhibition of tumour cell growth, NCI panel, 48 h
[1] = tested on: DLD-1
[2] = tested on: OVCAR-8
[3] = tested on: Malme-3M
[4] = tested on: SW-620
[5] = tested on: M19-MEL
[6] = tested on: MOLT-4
[7] = tested on: MCF7
[8] = tested on: SNB-19
[9] = tested on: OVCAR-5
[10] = tested on: SF-268
[11] = tested on: NCI-H23
[12] = tested on: DMS-114
[13] = tested on: SF-539
[14] = tested on: HOP-92
[15] = tested on: DU-145
[16] = tested on: T47D
[17] = tested on: Hs-578T
[18] = tested on: BT-549

| SMILES | GI50 [1] | GI50 [2] | GI50 [3] | GI50 [4] | GI50 [5] | GI50 [6] | GI50 [7] | GI50 [8] | GI50 [9] | GI50 [10] | GI50 [11] | GI50 [12] | GI50 [13] | GI50 [14] | GI50 [15] | GI50 [16] | GI50 [17] | GI50 [18] |
| --- | --- | --- | --- | --- | --- | --- | --- | --- | --- | --- | --- | --- | --- | --- | --- | --- | --- | --- |
| CC1=CC2c3cccc4[nH]cc(c34)CC2N(C)C1 (stereo unspecified) | > 37.8 µM (inactive) | > 100 µM (inactive) | 30.3 µM (inactive) | > 100 µM (inactive) | > 100 µM (inactive) | > 68.1 µM (inactive) | 95.1 µM (inactive) | > 100 µM (inactive) | > 100 µM (inactive) | > 100 µM (inactive) | > 100 µM (inactive) | 51.2 µM (inactive) | > 100 µM (inactive) | 24.4 µM (inactive) | – | – | – | – |
| COC1C(O)CC(OC2CC(Oc3cc4cc5c(c(O)c4c(O)c3C)C(=O)[C@@H](OC3CC(OC4CC(OC6CC(C)(O)C(OC(C)=O)C(C)O6)C(O)C(C)O4)C(O)C(C)O3)[C@H]([C@H](OC)C(=O)[C@@H](O)[C@@H](C)O)C5)OC(C)C2OC(C)=O)OC1C (stereo partly specified) [CHROMOMYCIN] | 0.00849 µM (active) | < 0.01 µM (active) | 0.00328 µM (active) | < 0.01 µM (active) | 0.00337 µM (active) | < 0.01 µM (active) | 0.00312 µM (active) | 0.00424 µM (active) | < 0.01 µM (active) | 0.00357 µM (active) | < 0.01 µM (active) | 2.14e-05 µM (active) | 0.00326 µM (active) | < 0.01 µM (active) | 0.0248 nM (active) | < 0.01 µM (active) | 0.0213 nM (active) | 0.0149 nM (active) |
| Nc1ncc2c(n1)-c1ccccc1OC2 | > 100 µM (inactive) | > 100 µM (inactive) | > 100 µM (inactive) | > 100 µM (inactive) | > 100 µM (inactive) | > 100 µM (inactive) | > 100 µM (inactive) | > 100 µM (inactive) | > 100 µM (inactive) | > 100 µM (inactive) | > 100 µM (inactive) | > 100 µM (inactive) | > 100 µM (inactive) | 98.4 µM (inactive) | – | – | – | – |

Source: ChEMBL document CHEMBL1201862, “PubChem BioAssay data set” (2004)
